According to patent publication US20040154048A1, “Activation of nuclear transfer embryos” (priority 2001, published 2004):
Marks after values point to notes of the source that are not given here.

Legend:
[1] = test system: porcine oocytes; conditions: ionomycin increased from 5 μM to 15 μM, low calcium levels; cited from earlier work
[2] = test system: IVM porcine oocytes; assay: Parthenogenetic activation of IVM porcine oocytes, development to blastocyst; format: cell-based; conditions: 5 μM ionomycin 5 min in mTALP-PVA, 6-DMAP +
Method: The preparation of in vitro matured (IVM) oocytes was essentially as described previously (Grupen et al, (1997) Reproduction Fertility Development 9:571-575). Ovaries from slaughtered prepubertal gilts were transported to the laboratory in Dulbecco's PBS supplemented with 0.6% (v/v) of an antibiotic solution (CSL Ltd) containing penicillin (10,000 U mL^−1), streptomycin (10,000 μg mL^−1) and fungizone (25 μg mL^−1) and maintained at 38° C. Antral follicles ([…] in diameter) were aspirated using a 21-gauge needle through which constant suction (1 L min^−1) was applied. The follicular contents were pooled in a collection tube. Cumulus-oocyte complexes (COCs) with at least three uniform layers of compact cumulus cells were recovered from the collected fluid, washed three times in OMM199a, transferred to 50 μl droplets (25 COCs per droplet) of OMM199a covered with mineral oil in a petrie dish (Becton Dickinson and Company, Plymouth, England) and incubated at 38.5° C. in a humidified atmosphere of 5% CO2 in air. After twenty two hours of maturation, expanded COCs were washed once in OMM199 without dibutyryl cAMP (OMM199b), transferred to 50 μl droplets of OMM199b and incubated for a further twenty four hours. At the end of the forty six hours maturation interval, the oocytes were treated with 0.5 mg mL^−1 hyaluronidase for one minute and then gently aspirated with a small bore glass pipette to remove the cumulus cells. Oocytes that had extruded a polar body were washed and kept in culture medium prior to activation.
The experiments hereafter were conducted with oocytes rather than nuclear transfer embryos. These experiments are termed parthenogenetic, since they are done without fertilized embryos. Parthenogenetic experiments are used routinely as a model system to investigate NT, largely because of the expense and additional experimental manipulation involved with NT embryos. Parthenogenetic experiments provide very useful information for the development of NT technology, and are directly predictive of NT outcomes.
Oocytes were activated forty six to forty eight hours after the start of maturation. Denuded oocytes that had extruded a polar body were washed and kept in modified TALP-PVA medium supplemented with 3.0 mM Ca-lactate (mTALP-PVA) for approximately one hour prior to activation. Oocytes were transferred to mTALP-PVA containing 5 μM ionomycin for five minutes. Oocytes were then washed twice and incubated in culture medium containing 2 mM 6-DMAP for three hours. The 6-DMAP treated oocytes were then washed twice and transferred to 50 μl droplets of the culture medium under mineral oil. In the ionomycin * treatment oocytes were not washed in media containing 6-DMAP.

C[C@H](CCC(=O)O)C[C@H](C)C[C@H](C)C(=O)/C=C(\O)[C@H](C)C[C@H](C)C/C=C/[C@@H](C)[C@@H](O)[C@@H](C)[C@@H](O)C[C@@H]1CC[C@@](C)([C@H]2CC[C@@](C)([C@@H](C)O)O2)O1 [Ionomycin, ionomycin]
oocytes developing parthenogenetically to blastocyst stage [1]: 23% | Percentage developing to blastocyst, Day 6 [2]: 49^c % | Percentage developing to blastocyst, Day 6 ([2]; listed as Ionomycin*): 1^d % | Percentage developing to blastocyst, Day 7 [2]: 51^c % | Percentage developing to blastocyst, Day 7 ([2]; listed as Ionomycin*): 1^d %
